The values below come from patent US20100113484A1, “TREATING AGENT OF UROPATHY” (ASKA PHARMACEUTICAL CO., LTD., priority 2006, published 2010).

Like-named read-outs stand apart in the source and are kept apart here.

Experiment [1] concerns the target T1, human recombinant PDE9 protein (Homo sapiens, UniProt O76083).
T1 construct: made in house; host or cells: COS-1 cells, transient transfection with pcDNA 3.1 (+); supernatant of the homogenate, not purified
In words: Measurement of PDE9-inhibiting activity ([3H]-cGMP hydrolysis). Type of experiment: biochemical. The protocol: Based on the base sequence of hsPDE9A1 registered with GenBank database (accession No.: AF048837), hsPDE9A1 fragment was amplified by polymerase chain reaction under the following conditions, using the following sequence (Amasham Pharmacia Biotech) as the primer and Human Prostate […] cDNA library (CLONTECH) as the template DNA, with Pfu Turbo DNA polymerase ([…]):
PCR condition: [95° C., 5 min]×1 cycle, [(95° C., 1 min), (58° C., 2 min), (72° C., 3 min)]×25 cycles, [72° C., 10 min]×1 cycle
Thus obtained hsPDE9A1 fragment was given a restricted enzymatic treatment with NheI and NotI, and thereafter inserted into pcDNA 3.1 (+) expression vector (Invitrogen) to let it serve as a human PDE9 expression vector.
Human PDE9 expression vector-transformed Escherichia coli was mass incubated to produce a large amount of human PDE9 expression vector, which was transiently transfected into COS-1 cells, with LIPOFECTAMINE 2000 Reagent (GIBCO). The cells were homogenized in ice-cooled buffer A (40 mmol/L Tris-HCl, pH7.5, 15 mmol/L benzamidine, 15 mmol/L 2-mercaptoethanol, 1 μg/mL Pepstatin A, 1 μg/mL Leupeptin, 5 mmol/L EDTA) and centrifuged at 4° C., 14,000×g for 10 minutes. The supernatant was isolated to provide human recombinant PDE9 protein solution.
This mixed solution was incubated at 30° C. for 30 minutes and the enzymatic reaction of PDE9 was terminated by heating the system in boiling water for 90 seconds. Returning the system to room temperature, 50 μL of Snake venom (SIGMA: 1 mg/mL) was added, followed by 10 minutes' incubation at 30° C., to convert the [^3H]-5′-GMP produced in the previous reaction to [^3H]-guanosine. […] Thereafter [^3H]-guanosine was eluted with 3 mL of 3 mol/L aqueous ammonia and its radiation activity was measured with liquid scintillation counter.
PDE9 inhibition of the tested compound can be calculated by the following formula: […]
From the percent inhibition at various concentration levels of each tested compound, its IC50 value against PDE9 can be determined.

The target in experiment [2] is T2, human recombinant PDE5 protein (Homo sapiens, UniProt O76074).
T2 construct: made in house; host or cells: COS-1 cells, transient transfection with pcDNA 3.1 (+); supernatant of the homogenate, not purified
In words: Measurement of PDE5-inhibiting activity. In kind it is biochemical. The conditions noted are these: Tables A and C; read-out: Inhibiting Activity (IC50 value) PDE5. As for the experimental part: PCR condition: [94° C., 2 min]×1 cycle, [(94° C., 30 sec), (65° C., 30 sec), (68° C., 3 min)]×25 cycles, [68° C., 6 min]×1 cycle
Thus obtained hsPDE5A1 fragment was given a restricted enzymatic treatment with XBaI and EcoRI, and thereafter inserted into pcDNA 3.1 (+) expression vector (Invitrogen) to let it serve as a human PDE5 expression vector.
Human PDE5 expression vector-transformed Escherichia coli was mass incubated to produce a large amount of human PDE5 expression vector, which was transiently transfected into COS-1 cells, with LIPOFECTAMINE 2000 Reagent (GIBCO). The cells were homogenized in ice-cooled buffer A and centrifuged at 4° C., 14,000×g for 10 minutes. The supernatant was isolated to provide human recombinant PDE5 protein solution.

Experiment [3] has as its system partial urethra obstruction model in guinea pigs. In words: Dysuria pathological model: partial urethra obstruction model, cystometry. Type of experiment: in vivo, Hartley female guinea pigs. To be noted: guinea pig, i.v., 1 mg/kg. The protocol:
Three-four weeks old Hartley female guinea pigs (Japan SLC, Inc.) were given celiotomy under anesthesia with pentobarbital (30 mg/kg i.p.) and in their urethra to the peripheral side by 1-2 mm from the bladder neck, each a polyethylene tube of 1.4 mm in width and 2.0 mm in inner diameter was placed. After closing the wound, the guinea pigs were bred for at least 3 weeks to produce partial urethra obstruction model in guinea pigs in which occurrence of intravesical pressure rise not accompanied by micturition (uninhibited contraction) and residual urine were observed.
The model was catheterized under anesthesia with urethane (1 g/kg i.p.) at the apex of urinary bladder and right jugular vein for cystometrography and intravenous administration, respectively. The other end of the bladder catheter was connected to a pressure transducer and infusion pump via a three way stop-cock, and physiological saline was continuously infused into the bladder through the infusion pump at a rate of 0.4 mL/min to induce micturition reflex. Immediately after the micturition reflex was induced, infusion of physiological saline into the bladder was stopped. The intravesical pressure at the time the micturition reflex was induced was measured with the pressure transducer, and the obtained cystometrogram was recorded with pen recorder. The urine voided was collected with disposable type weighing dish and its weight was measured. Further the physiological saline remained in the bladder was sucked with syringe via the bladder catheter and the residual urine volume was measured. The operations of suspending the infusion of physiological saline upon induction of micturition reflex, and about 1 minute thereafter resuming the infusion of physiological saline to induce micturition reflex were repeated plural times (generally 4 times) to stabilize the micturition reflex.
After stabilizing the micturition reflex, a compound solution (prepared by dissolving the compound or methanesulfonic acid salt thereof in DMSO and diluting it with physiological saline or distilled water) or physiological saline was administered into the vein at a volume of 10 mL/kg over 4 minutes, and simultaneously the above-described micturition reflex operations were repeated until 30 minutes passed after initiation of the administration, while measuring the intravesical pressure and the volumes of micturition and residual urine. Also the frequency of uninhibited contraction occurrence during the above-described operations was recorded.

Setting [4] is: Tables A and C, read-out: Inhibiting Activity (IC50 value) PDE9.
Where [5] appears, read: Table B, read-out: Inhibiting Activity IC50 PDE9.

T1 sequence (O76083 whole entry): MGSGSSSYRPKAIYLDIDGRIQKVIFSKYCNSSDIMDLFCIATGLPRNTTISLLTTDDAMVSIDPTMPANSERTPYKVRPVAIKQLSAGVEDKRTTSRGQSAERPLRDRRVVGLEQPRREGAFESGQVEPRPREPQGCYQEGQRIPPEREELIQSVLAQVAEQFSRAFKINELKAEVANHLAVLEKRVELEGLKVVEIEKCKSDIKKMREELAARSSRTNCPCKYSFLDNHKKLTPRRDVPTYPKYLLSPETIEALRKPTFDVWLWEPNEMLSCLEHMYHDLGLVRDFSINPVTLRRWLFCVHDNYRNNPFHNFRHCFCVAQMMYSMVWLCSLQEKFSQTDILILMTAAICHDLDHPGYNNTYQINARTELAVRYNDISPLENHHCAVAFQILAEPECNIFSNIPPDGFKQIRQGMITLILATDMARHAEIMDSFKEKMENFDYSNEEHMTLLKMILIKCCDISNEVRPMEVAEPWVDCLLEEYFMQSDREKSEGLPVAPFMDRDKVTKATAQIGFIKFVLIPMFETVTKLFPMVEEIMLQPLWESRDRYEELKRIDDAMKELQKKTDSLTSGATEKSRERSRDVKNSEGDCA

For “2-(3-Chloro-4-fluorobenzyl)-5-methyl-4-oxo-3,4-dihydrothieno-[2,3-d]pyrimidine-6-carboxylic acid [A-10]”, the half-maximal inhibitory concentration (IC50) in experiment [1] (setting [4]) was 38 nM; in experiment [2] it was 3420 nM.
With “2-(5-Chlorothiophen-2-ylmethyl)-5-methyl-4-oxo-3,4-dihydrothieno[2,3-d]pyrimidine-6-carboxylic acid [A-3]”, the IC50 in experiment [1] (setting [4]) came to 34 nM; in experiment [2], 6900 nM.
The like results for `Cc1c(C(=O)O)sc2nc(Cc3ccsc3)[nH]c(=O)c12` [A-1, 5-Methyl-4-oxo-2-(thiophen-3-ylmethyl)-3,4-dihydrothieno[2,3-d]-pyrimidine-6-carboxylic acid] were, in that order, 22 nM and 17800 nM.
Take `Cc1c(C(=O)O)sc2nc(Cc3cccc(Br)c3)[nH]c(=O)c12` [A-5, 2-(3-Bromobenzyl)-5-methyl-4-oxo-3,4-dihydrothieno[2,3-d]-pyrimidine-6-carboxylic acid]: the IC50 came to 24 nM in experiment [1] (setting [4]) and 4430 nM in experiment [2].
`Cc1c(C(=O)O)sc2nc(Cc3cccc(C(F)(F)F)c3)[nH]c(=O)c12` [A-6, 5-Methyl-4-oxo-2-(3-trifluoromethylbenzyl)-3,4-dihydrothieno[2,3-d]pyrimidine-6-carboxylic acid]: the results for the half-maximal inhibitory concentration (IC50) in experiment [1] (setting [4]) and in experiment [2] were 34 nM and 22200 nM, respectively.
On the same counts, the results for `Cc1c(C(=O)O)sc2nc(Cc3ccccc3SC(F)(F)F)[nH]c(=O)c12` [A-8, 5-Methyl-4-oxo-2-(2-trifluoromethylthiobenzyl)-3,4-dihydrothieno[2,3-d]pyrimidine-6-carboxylic acid] are 46 nM and 20000 nM.
Consider `Cc1c(C(=O)O)sc2nc(Cc3ccc(F)c(C(F)(F)F)c3)[nH]c(=O)c12` [A-9, 2-(4-Fluoro-3-trifluoromethylbenzyl)-5-methyl-4-oxo-3,4-dihydrothieno[2,3-d]pyrimidine-6-carboxylic acid], for which the values for the IC50 in experiment [1] (setting [4]) and in experiment [2] were 44 nM and 18900 nM, respectively.
Take `Cc1c(C(=O)O)sc2nc(Cc3cc(Cl)ccc3F)[nH]c(=O)c12` [A-11, 2-(5-Chloro-2-fluorobenzyl)-5-methyl-4-oxo-3,4-dihydrothieno-[2,3-d]pyrimidine-6-carboxylic acid]: the half-inhibitory concentration (IC50) in experiment [1] (setting [4]) was 22 nM; in experiment [2] it was 5710 nM.
The like results for `Cc1c(C(=O)O)sc2nc(Cc3cc(F)ccc3F)[nH]c(=O)c12` [A-12, 2-(2,5-Difluorobenzyl)-5-methyl-4-oxo-3,4-dihydrothieno-[2,3-d]pyrimidine-6-carboxylic acid] were, in that order, 42 nM and 19800 nM.
Turning to `Cc1c(C(=O)O)sc2nc(CC3=CCCC3)[nH]c(=O)c12` [A-13, 2-(Cyclopent-1-enylmethyl)-5-methyl-4-oxo-3,4-dihydrothieno-[2,3-d]pyrimidine-6-carboxylic acid], the IC50 in experiment [1] (setting [4]) amounted to 28 nM; in experiment [2] it was 8590 nM.
Regarding `Cc1c(C(=O)O)sc2nc(CC3=CCCCC3)[nH]c(=O)c12` [A-14, 2-(Cyclohex-1-enylmethyl)-5-methyl-4-oxo-3,4-dihydrothieno-[2,3-d]pyrimidine-6-carboxylic acid], the IC50 turned out to be 54 nM in experiment [1] (setting [4]) and 1640 nM in experiment [2].
On the same counts, the results for `O=C(O)c1cc2c(=O)[nH]c(Cc3ccsc3)nc2s1` [A-15, 4-Oxo-2-(thiophen-3-ylmethyl)-3,4-dihydrothieno-[2,3-d]pyrimidine-6-carboxylic acid] are 14 nM and 34900 nM.
In the case of `O=C(O)c1cc2c(=O)[nH]c(Cc3cccs3)nc2s1` [A-16, 4-Oxo-2-(thiophen-2-ylmethyl)-3,4-dihydrothieno[2,3-d]-pyrimidine-6-carboxylic acid], the IC50 in experiment [1] (setting [4]) stood at 15 nM; in experiment [2], 41200 nM.
In the case of `O=C(O)c1cc2c(=O)[nH]c(Cc3ccccc3)nc2s1` [A-17, 2-Benzyl-4-oxo-3,4-dihydrothieno[2,3-d]pyrimidine-6-carboxylic acid], the IC50 in experiment [1] (setting [4]) amounted to 19 nM; in experiment [2], 34400 nM.
In the case of `O=C(O)c1cc2c(=O)[nH]c(Cc3cccc(Cl)c3)nc2s1` [A-18, 2-(3-Chlorobenzyl)-4-oxo-3,4-dihydrothieno[2,3-d]-pyrimidine-6-carboxylic acid], the figures for the IC50 in experiment [1] (setting [4]) and in experiment [2] were 10 nM and 15800 nM, respectively.
Turning to `O=C(O)c1cc2c(=O)[nH]c(Cc3cccc(C(F)(F)F)c3)nc2s1` [A-19, 4-Oxo-2-(3-trifluoromethylbenzyl)-3,4-dihydrothieno-[2,3-d]pyrimidine-6-carboxylic acid], the figures for the IC50 in experiment [1] (setting [4]) and in experiment [2] were 15 nM and 30200 nM, respectively.
Regarding `O=C(O)c1cc2c(=O)[nH]c(Cc3ccc(Cl)c(Cl)c3)nc2s1` [A-20, 2-(3,4-Dichlorobenzyl)-4-oxo-3,4-dihydrothieno[2,3-d]-pyrimidine-6-carboxylic acid], the IC50 in experiment [1] (setting [4]) turned out to be 9 nM; in experiment [2] it was 2280 nM.
With `COc1ccc(Cc2nc3cc(C(=O)O)ccc3c(=O)[nH]2)cc1OC` [B-3, 2-(3,4-Dimethoxybenzyl)-4-oxo-3,4-dihydroquinazoline-7-carboxylic acid], in experiment [1] (Table B), the “Inhibiting Activity inhibition ratio at 1 μM PDE9” value is “inhibition ratio = 11%”.
Turning to `COc1ccccc1Cc1nc2cc(C(=O)O)ccc2c(=O)[nH]1` [B-4, 2-(2-Methoxybenzyl)-4-oxo-3,4-dihydroquinazoline-7-carboxylic acid], the IC50 in experiment [1] (setting [5]) stood at 1290 nM.
Consider `COc1cccc(Cc2nc3cc(C(=O)O)ccc3c(=O)[nH]2)c1` [B-5, 2-(3-Methoxybenzyl)-4-oxo-3,4-dihydroquinazoline-7-carboxylic acid], for which the “Inhibiting Activity inhibition ratio at 1 μM PDE9” value in experiment [1] (Table B) is “inhibition ratio = 41%”.
In the case of `O=C(O)c1ccc2c(=O)[nH]c(Cc3ccccn3)nc2c1` [B-6, 4-Oxo-2-(2-pyridylmethyl)-3,4-dihydroquinazoline-7-carboxylic acid], the IC50 in experiment [1] (setting [5]) amounted to 1290 nM.
Turning to `O=C(O)c1ccc2c(=O)[nH]c(Cc3cccnc3)nc2c1` [B-7, 4-Oxo-2-(3-pyridylmethyl)-3,4-dihydroquinazoline-7-carboxylic acid], the “Inhibiting Activity inhibition ratio at 1 μM PDE9” value in experiment [1] (Table B) is given as “inhibition ratio = 30%”.
As for `O=C(O)c1ccc2c(=O)[nH]c(Cc3cccs3)nc2c1` [B-8, 4-Oxo-2-(2-thienylmethyl)-3,4-dihydroquinazoline-7-carboxylic acid], the IC50 in experiment [1] (setting [5]) came out at 93 nM.
On the same count and under the same terms, with `Cn1c(Cc2cccc(Cl)c2)nc2cc(C(=O)O)ccc2c1=O` [B-9, 2-(3-Chlorobenzyl)-3-methyl-4-oxo-3,4-dihydroquinazoline-7-carboxylic acid] the figure was 4660 nM.
As to `CC(C)c1ncc2c(=O)[nH]c3cc(Cl)ccc3n12` [C-1 (methanesulfonate)], in experiment [3], the “Frequency of occurrence of uninhibited contraction volume change” value is given as “+0.77 times/min” and the “Residual urine volume volume change” value is 0.22 mL.
